# Laboratory results: patent US20130165450A1, “Novel Thiazol-Carboximide Derivatives as PDK1 Inhibitors” (priority 2010, published 2013)
# Target: T1, recombinant human PDK1 (amino acids 51-556) (Homo sapiens, UniProt O15530)
# T1 construct: containing amino acids 51-556 of the human PDK1 enzyme; made in house
# T1 sequence (O15530 51-556): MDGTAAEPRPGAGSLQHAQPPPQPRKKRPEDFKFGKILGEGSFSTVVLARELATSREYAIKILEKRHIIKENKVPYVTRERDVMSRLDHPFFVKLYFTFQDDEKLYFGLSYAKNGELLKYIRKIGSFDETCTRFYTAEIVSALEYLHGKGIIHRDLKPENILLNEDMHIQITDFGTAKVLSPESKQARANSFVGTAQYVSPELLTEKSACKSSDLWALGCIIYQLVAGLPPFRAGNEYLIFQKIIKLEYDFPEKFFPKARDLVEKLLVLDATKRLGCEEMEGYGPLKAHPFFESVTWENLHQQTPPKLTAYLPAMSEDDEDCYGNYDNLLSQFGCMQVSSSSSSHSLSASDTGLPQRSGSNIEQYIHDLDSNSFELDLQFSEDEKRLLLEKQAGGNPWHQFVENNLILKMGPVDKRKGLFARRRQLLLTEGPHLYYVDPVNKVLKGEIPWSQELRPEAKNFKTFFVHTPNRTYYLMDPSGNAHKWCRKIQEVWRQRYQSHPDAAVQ
# Assay: PDK1 IMAP fluorescence polarization kinase assay
# Assay type: biochemical
# Settings: 10 nM PDK1, 100 nM peptide substrate, 100 nM PIFtide, 2.5 uM ATP, 1.5 hours; numeric values
row,IC50,SMILES
1,7 nM,"Nc1ccc(N2CCC[C@@H](N)C2)c(NC(=O)c2csc(-c3cnn(Cc4cccs4)c3)n2)c1 [Compound 1, N-[5-amino-2-(3(R)-amino-1-piperidinyl)phenyl]-2-[1-(2-thienylmethyl)-1H-pyrazol-4-yl]-4-thiazolecarboxamide]"

# Same assay, conditions: 10 nM PDK1, 100 nM peptide substrate, 100 nM PIFtide, 2.5 uM ATP, 1.5 hours; rated A-D
row,IC50,SMILES
1,51 to 250 nM,"Nc1ccc(N2CCC3(CCCNC3)CC2)c(NC(=O)c2csc(-c3cnn(Cc4ccccn4)c3)n2)c1 [Compound 20, N-[5-amino-2-(2,9-diazaspiro[5.5]undec-9-yl)phenyl]-2-[1-(2-pyridinylmethyl)-1H-pyrazol-4-yl]-4-thiazolecarboxamide]"
2,51 to 250 nM,"NCC1CCN(c2ccc(N)cc2NC(=O)c2csc(-c3cnn(Cc4ccccn4)c3)n2)CC1 [Compound 24, N-[5-amino-2-[4-(aminomethyl)-1-piperidinyl]phenyl]-2-[1-(2-pyridinylmethyl)-1H-pyrazol-4-yl]-4-thiazolecarboxamide]"
3,51 to 250 nM,"N[C@@H]1CCCN(c2c(F)cccc2NC(=O)c2csc(-c3cnn(Cc4cccc(F)c4F)c3)n2)C1 [Compound 52, N-[2-(3(R)-amino-1-piperidinyl)-3-fluorophenyl]-2-[1-[(2,3-difluorophenyl)methyl]-1H-pyrazol-4-yl]-4-thiazolecarboxamide]"
4,> 1000 nM,"CCOC(=O)C1CCCN(c2ccc(N)cc2NC(=O)c2csc(-c3cnn(Cc4cccs4)c3)n2)C1 (stereo not shown) [Compound 11, ethyl 1-[4-amino-2-[[[2-[1-(2-thienylmethyl)-1H-pyrazol-4-yl]-4-thiazolyl]carbonyl]amino]phenyl]-3-piperidinecarboxylate]"
5,1 to 50 nM,"N[C@@H]1CCCN(c2c(F)cccc2NC(=O)c2csc(-c3cnn(Cc4cccs4)c3)n2)C1 [Compound 23, N-[2-(3(R)-amino-1-piperidinyl)-3-fluorophenyl]-2-[1-(2-thienylmethyl)-1H-pyrazol-4-yl]-4-thiazolecarboxamide]"
6,51 to 250 nM,"N[C@@H]1CCCN(c2c(F)cccc2NC(=O)c2csc(-c3cnn(Cc4c(F)cccc4CO)c3)n2)C1 [Compound 46, N-[2-(3(R)-amino-1-piperidinyl)-3-fluorophenyl]-2-[1-[[2-fluoro-6-(hydroxymethyl)phenyl]methyl]-1H-pyrazol-4-yl]-4-thiazolecarboxamide]"
7,1 to 50 nM,"COCCn1cc(-c2nc(C(=O)Nc3cc(N)ccc3N3CCC[C@@H](N)C3)cs2)cn1 [Compound 26, N-[5-amino-2-(3(R)-amino-1-piperidinyl)phenyl]-2-[1-(2-methoxyethyl)-1H-pyrazol-4-yl]-4-thiazolecarboxamide]"
8,251 to 1000 nM,"Nc1ccc(N2CCC[C@@H](N)C2)c(NC(=O)c2csc(-c3cnn(CCN4CCOCC4)c3)n2)c1 [Compound 4, N-[5-amino-2-(3(R)-amino-1-piperidinyl)phenyl]-2-[1-[2-(4-morpholinyl)ethyl]-1H-pyrazol-4-yl]-4-thiazolecarboxamide]"
9,251 to 1000 nM,"N[C@@H]1CCCN(c2c(F)cccc2NC(=O)c2csc(-c3cnn(Cc4c(F)cc(F)cc4F)c3)n2)C1 [Compound 38, N-[2-(3(R)-amino-1-piperidinyl)-3-fluorophenyl]-2-[1-[(2,4,6-trifluorophenyl)methyl]-1H-pyrazol-4-yl]-4-thiazolecarboxamide]"
10,1 to 50 nM,"Nc1ccc(N2CCC[C@@H](N)C2)c(NC(=O)c2csc(-c3cnn(Cc4cccnc4)c3)n2)c1 [Compound 18, N-[5-amino-2-(3(R)-amino-1-piperidinyl)phenyl]-2-[1-(3-pyridinylmethyl)-1H-pyrazol-4-yl]-4-thiazolecarboxamide]"
11,251 to 1000 nM,"N[C@@H]1CCCN(c2c(F)cccc2NC(=O)c2csc(-c3cnn(Cc4ccccc4OC(F)F)c3)n2)C1 [Compound 36, N-[2-(3(R)-amino-1-piperidinyl)-3-fluorophenyl]-2-[1-[[2-(difluoromethoxy)phenyl]methyl]-1H-pyrazol-4-yl]-4-thiazolecarboxamide]"
12,251 to 1000 nM,"COC(=O)c1cccc(F)c1Cn1cc(-c2nc(C(=O)Nc3cccc(F)c3N3CCC[C@@H](N)C3)cs2)cn1 [Compound 45, methyl 2-[[4-[4-[[[2-(3(R)-amino-1-piperidinyl)-3-fluorophenyl]amino]carbonyl]-2-thiazolyl]-1H-pyrazol-1-yl]methyl]-3-fluorobenzoate]"
13,> 1000 nM,"N[C@@H]1CCCN(c2c(F)cccc2NC(=O)c2csc(-c3cnn(Cc4ccccc4-c4cn[nH]c4)c3)n2)C1 [Compound 50, N-[2-(3(R)-amino-1-piperidinyl)-3-fluorophenyl]-2-[1-[[2-(1h-pyrazol-4-yl)phenyl]methyl]-1H-pyrazol-4-yl]-4-thiazolecarboxamide]"
14,> 1000 nM,"N[C@@H]1CCCN(c2c(F)cccc2NC(=O)c2csc(-c3cnn(CC4CCNCC4)c3)n2)C1 [Compound 47, N-[2-(3(R)-amino-1-piperidinyl)-3-fluorophenyl]-2-[1-(4-piperidinylmethyl)-1H-pyrazol-4-yl]-4-thiazolecarboxamide]"
15,1 to 50 nM,"Nc1ccc(N2CCC[C@@H](N)C2)c(NC(=O)c2csc(-c3cnn(Cc4cc(F)ccc4F)c3)n2)c1 [Compound 22, N-[5-amino-2-(3(R)-amino-1-piperidinyl)phenyl]-2-[1-[(2,5-difluorophenyl)methyl]-1H-pyrazol-4-yl]-4-thiazolecarboxamide]"
16,> 1000 nM,"N[C@@H]1CCCN(c2c(F)cccc2NC(=O)c2csc(-c3cnn(Cc4ccccc4OC(F)(F)F)c3)n2)C1 [Compound 33, N-[2-(3(R)-amino-1-piperidinyl)-3-fluorophenyl]-2-[1-[[2-(trifluoromethoxy)phenyl]methyl]-1H-pyrazol-4-yl]-4-thiazolecarboxamide]"
17,51 to 250 nM,"Nc1ccc(N2CCC[C@@H](N)C2)c(NC(=O)c2csc(-c3cnn(Cc4ccncc4)c3)n2)c1 [Compound 9, N-[5-amino-2-(3(R)-amino-1-piperidinyl)phenyl]-2-[1-(4-pyridinylmethyl)-1H-pyrazol-4-yl]-4-thiazolecarboxamide]"
18,51 to 250 nM,"N[C@@H]1CCCN(c2c(F)cccc2NC(=O)c2csc(-c3cnn(Cc4ccccc4CO)c3)n2)C1 [Compound 42, N-[2-(3(R)-amino-1-piperidinyl)-3-fluorophenyl]-2-[1-[[2-(hydroxymethyl)phenyl]methyl]-1H-pyrazol-4-yl]-4-thiazolecarboxamide]"
